Drawing on patent US12258344B2, “Azaaromatic amide derivatives for the treatment of cancer” (SHENZHEN FORWARD PHARMACEUTICALS CO., LTD., priority 2019, dated 2025), this text covers GI50 for nine compounds.

Common to all, as to type: cell-based
For assay [1], the target named is BaF3 (EGFR/A763insFQEA) (Homo sapiens, UniProt P00533, INS763FQEA, cells depend on it). Put plainly: Test 14: EGFR exon 20 inserted A763insFQEA cell proliferation test. The conditions noted are these: 72 hours, Cell Titer-Glo, read-out: Test 14 IC50. The procedure:
Test 14: EGFR Exon 20 Inserted A763insFQEA Cell Proliferation Test
(§1) The number of viable cells in the culture was measured according to the protocol described in Promega's Cell Titer-Glo Luminescent cell Viability Assay (Promega catalog number #G7570). 90 μl of cells (3,000 cells/well) were cultured in growth medium in a Corning black transparent bottom 96-well plate, and cultured in a 5% CO2 humidified incubator at 37° C. overnight. The compound serially diluted in 100% DMSO was added to the cells using a pipette, and the cells were incubated for another 72 hours. 100 μl of the mixed Cell Titer-Glo reagent was added to the cells in the 96-well culture plate to lyse the cells and mix gently. Subsequently, the […] was detected on the Envision microplate detector to obtain the data of each compound. Finally, the data was input into a suitable software package (such as Prism) for curve fitting analysis.
(In general: Cellular ATP, detected with luciferase, serves as a proxy for viable cell number.)

The target of assay [2] is BaF3 (EGFR/V769insASV) (Homo sapiens, UniProt P00533, DUP767-769, cells depend on it). The assay can be described thus: Test 15: EGFR exon 20 inserted V769insASV cell proliferation test. The conditions noted are these: 72 hours, Cell Titer-Glo, read-out: Test 15 IC50. Here is the method:
Test 15: EGFR Exon 20 Inserted V769insASV Cell Proliferation Test
as §1, with “(3000” for “(3,000”

Assay [3] addresses T1, BaF3 (EGFR/D770insSVD) (Homo sapiens, UniProt P00533, DUP768-770, cells depend on it).
T1 construct: Test 13 IC50 (nM); other: BaF3 (EGFR/D770insSVD), 72 hours, Cell Titer-Glo
Put plainly: Test 13: EGFR exon 20 inserted D770insSVD cell proliferation test. The conditions noted are these: BaF3 (EGFR/D770insSVD), 72 hours, Cell Titer-Glo; read-out: Test 13 IC50. Here is the method: Test 13: EGFR Exon 20 Inserted D770insSVD Cell Proliferation Test
as §1

BaF3 (EGFR/V769insASV), sequence (P00533 with tags, fused parts or gaps DUP767-769): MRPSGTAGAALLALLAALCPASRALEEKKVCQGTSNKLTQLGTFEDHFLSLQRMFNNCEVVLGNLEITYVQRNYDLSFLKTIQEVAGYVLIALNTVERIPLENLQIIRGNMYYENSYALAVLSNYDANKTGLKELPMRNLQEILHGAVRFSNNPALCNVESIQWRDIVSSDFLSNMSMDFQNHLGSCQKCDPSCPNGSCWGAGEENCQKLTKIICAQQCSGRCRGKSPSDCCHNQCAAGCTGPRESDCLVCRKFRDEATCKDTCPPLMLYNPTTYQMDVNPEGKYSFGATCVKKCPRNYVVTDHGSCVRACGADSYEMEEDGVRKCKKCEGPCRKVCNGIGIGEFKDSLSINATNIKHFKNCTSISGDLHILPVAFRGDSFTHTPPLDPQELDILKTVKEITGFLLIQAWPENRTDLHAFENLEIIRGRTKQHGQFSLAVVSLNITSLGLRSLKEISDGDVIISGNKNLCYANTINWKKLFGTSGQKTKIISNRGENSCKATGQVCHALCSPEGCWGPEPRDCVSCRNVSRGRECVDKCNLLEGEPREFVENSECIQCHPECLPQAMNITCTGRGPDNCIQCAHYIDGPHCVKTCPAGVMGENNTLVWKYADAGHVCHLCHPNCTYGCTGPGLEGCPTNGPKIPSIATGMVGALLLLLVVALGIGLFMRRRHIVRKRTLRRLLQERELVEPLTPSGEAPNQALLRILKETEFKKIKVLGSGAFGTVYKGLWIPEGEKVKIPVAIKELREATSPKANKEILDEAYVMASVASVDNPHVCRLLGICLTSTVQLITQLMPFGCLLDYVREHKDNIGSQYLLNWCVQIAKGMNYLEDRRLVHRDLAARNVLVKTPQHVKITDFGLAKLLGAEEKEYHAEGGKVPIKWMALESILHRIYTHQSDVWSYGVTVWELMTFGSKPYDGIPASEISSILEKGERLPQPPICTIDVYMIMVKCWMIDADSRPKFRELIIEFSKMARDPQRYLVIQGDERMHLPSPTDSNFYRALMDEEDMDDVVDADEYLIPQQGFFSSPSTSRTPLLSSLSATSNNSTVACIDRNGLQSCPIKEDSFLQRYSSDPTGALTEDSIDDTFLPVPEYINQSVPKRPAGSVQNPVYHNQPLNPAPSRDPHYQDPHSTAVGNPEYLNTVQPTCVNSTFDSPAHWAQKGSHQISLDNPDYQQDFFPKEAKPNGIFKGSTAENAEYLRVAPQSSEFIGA
T1 sequence (P00533 with tags, fused parts or gaps DUP768-770): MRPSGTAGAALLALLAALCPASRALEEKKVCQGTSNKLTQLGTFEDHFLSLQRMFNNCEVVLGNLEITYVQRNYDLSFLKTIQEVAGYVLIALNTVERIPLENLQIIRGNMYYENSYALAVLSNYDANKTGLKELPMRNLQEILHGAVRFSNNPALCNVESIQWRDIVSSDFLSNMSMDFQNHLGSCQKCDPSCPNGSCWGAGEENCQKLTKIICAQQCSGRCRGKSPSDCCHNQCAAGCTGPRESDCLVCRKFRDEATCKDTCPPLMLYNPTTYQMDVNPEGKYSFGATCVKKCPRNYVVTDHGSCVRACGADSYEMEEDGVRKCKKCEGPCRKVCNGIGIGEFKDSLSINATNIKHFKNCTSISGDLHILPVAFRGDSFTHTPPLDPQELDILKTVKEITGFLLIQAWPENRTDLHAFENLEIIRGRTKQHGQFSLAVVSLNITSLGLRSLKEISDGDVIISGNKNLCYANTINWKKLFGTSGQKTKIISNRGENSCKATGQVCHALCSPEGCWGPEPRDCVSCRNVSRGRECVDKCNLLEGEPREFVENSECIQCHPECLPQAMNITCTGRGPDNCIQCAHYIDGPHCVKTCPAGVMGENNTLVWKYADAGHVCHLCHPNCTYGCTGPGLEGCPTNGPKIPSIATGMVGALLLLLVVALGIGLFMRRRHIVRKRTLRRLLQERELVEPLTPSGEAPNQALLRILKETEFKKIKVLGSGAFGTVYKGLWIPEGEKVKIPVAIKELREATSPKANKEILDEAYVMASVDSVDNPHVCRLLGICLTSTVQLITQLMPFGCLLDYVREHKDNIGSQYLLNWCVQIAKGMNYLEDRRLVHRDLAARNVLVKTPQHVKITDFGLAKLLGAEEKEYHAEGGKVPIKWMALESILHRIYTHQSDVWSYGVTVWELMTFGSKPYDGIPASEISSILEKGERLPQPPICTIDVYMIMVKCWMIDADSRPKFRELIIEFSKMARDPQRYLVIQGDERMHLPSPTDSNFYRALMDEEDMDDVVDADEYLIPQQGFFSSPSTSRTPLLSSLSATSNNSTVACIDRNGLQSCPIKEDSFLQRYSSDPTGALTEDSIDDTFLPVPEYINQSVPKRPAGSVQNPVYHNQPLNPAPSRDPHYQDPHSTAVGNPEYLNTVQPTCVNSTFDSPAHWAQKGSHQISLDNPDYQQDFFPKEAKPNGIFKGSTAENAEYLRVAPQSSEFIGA
BaF3 (EGFR/A763insFQEA), sequence (P00533 with tags, fused parts or gaps INS763FQEA): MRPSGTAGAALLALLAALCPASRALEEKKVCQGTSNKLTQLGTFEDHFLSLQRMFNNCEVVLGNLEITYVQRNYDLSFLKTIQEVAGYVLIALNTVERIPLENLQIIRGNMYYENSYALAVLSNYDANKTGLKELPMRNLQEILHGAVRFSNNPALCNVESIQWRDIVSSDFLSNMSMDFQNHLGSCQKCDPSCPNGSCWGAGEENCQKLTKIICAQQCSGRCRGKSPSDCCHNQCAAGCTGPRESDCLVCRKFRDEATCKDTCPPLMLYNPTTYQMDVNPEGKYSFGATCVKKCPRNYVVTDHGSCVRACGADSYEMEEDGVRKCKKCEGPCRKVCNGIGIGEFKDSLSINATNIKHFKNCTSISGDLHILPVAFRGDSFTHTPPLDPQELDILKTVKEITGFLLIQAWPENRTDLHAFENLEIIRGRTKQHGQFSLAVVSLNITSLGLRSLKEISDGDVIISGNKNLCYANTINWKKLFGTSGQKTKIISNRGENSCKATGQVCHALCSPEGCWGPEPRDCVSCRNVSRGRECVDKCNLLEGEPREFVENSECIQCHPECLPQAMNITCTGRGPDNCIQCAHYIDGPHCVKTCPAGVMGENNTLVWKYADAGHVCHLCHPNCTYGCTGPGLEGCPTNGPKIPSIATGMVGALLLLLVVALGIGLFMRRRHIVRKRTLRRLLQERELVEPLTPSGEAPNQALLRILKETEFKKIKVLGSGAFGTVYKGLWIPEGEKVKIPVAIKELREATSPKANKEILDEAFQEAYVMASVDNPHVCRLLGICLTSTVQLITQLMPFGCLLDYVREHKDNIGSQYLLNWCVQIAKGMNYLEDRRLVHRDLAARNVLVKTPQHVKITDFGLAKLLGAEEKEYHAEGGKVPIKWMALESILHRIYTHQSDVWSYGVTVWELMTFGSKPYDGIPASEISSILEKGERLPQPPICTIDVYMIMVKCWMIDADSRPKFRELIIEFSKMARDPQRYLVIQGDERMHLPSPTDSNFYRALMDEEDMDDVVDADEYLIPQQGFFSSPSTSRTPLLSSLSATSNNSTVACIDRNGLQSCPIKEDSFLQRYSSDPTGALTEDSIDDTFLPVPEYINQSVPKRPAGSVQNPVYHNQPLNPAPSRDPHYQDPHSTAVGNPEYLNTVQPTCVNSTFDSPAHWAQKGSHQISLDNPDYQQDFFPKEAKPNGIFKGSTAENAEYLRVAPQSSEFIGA

As for `C=CC(=O)Nc1cc(Nc2ncnc(-c3cnc4c(C)cccn34)n2)c(OC)cc1N(C)CCN(C)C` [Compound 19, N-(2-((2-(dimethylamino)ethyl)(methyl)amino)-4-methoxy-5-((4-(8-methylimidazole[1,2-a]pyridin-3-yl)-1,3,5-triazin-2-yl)amino)phenyl)acrylamide], the GI50 in assay [1] is 42.6 nM; in assay [2] it was 148 nM; in assay [3], 144 nM.
For `C=CC(=O)Nc1cc(Nc2nccc(-c3cn(C)c4ccc(F)cc34)n2)c(OC(F)F)cc1N(C)CCNC` [Compound 20, N-(4-(difluoromethoxy)-5-((4-(5-fluoro-1-methyl-1H-indol-3-yl)pyrimidin-2-yl)amino)-2-(methyl(2-(methylamino)ethyl)amino)phenyl)acrylamide], the GI50 stood at 75.1 nM in assay [1], 155 nM in assay [2] and 89.2 nM in assay [3].
On the same counts, the results for `C=CC(=O)Nc1cc(Nc2nccc(-c3cn(C)c4ccc(F)cc34)n2)c(OC)cc1N(C)CCN(C)C` [Compound 21, N-(2-((2-(dimethylamino)ethyl)(methyl)amino)-5-((4-(5-fluoro-1-methyl-1H-indol-3-yl)pyrimidin-2-yl)amino)-4-methoxyphenyl)acrylamide] are 50.1 nM, 98.6 nM and 81 nM.
Consider `C=CC(=O)Nc1cc(Nc2nccc(-c3cn(C)c4ccc(F)cc34)n2)c(OCC)cc1N(C)CCN(C)C` [Compound 22, N-(2-((2-(dimethylamino)ethyl)(methyl)amino)-4-ethoxy-5-((4-(5-fluoro-1-methyl-1H-indol-3-yl)pyrimidin-2-yl)amino)phenyl)acrylamide], for which the GI50 in assay [1] is 193 nM; in assay [2], 365 nM; in assay [3] it was 248 nM.
The like results for `C=CC(=O)Nc1cc(Nc2nccc(-c3cn(C)c4ccccc34)n2)c(OCC)cc1N(C)CCN(C)C` [Compound 23, N-(2-((2-(dimethylamino)ethyl)(methyl)amino)-4-ethoxy-5-((4-(1-methyl-1H-indole-3-yl)pyrimidin-2-yl)amino)phenyl)acrylamide] were, in that order, 122 nM, 264 nM and 219 nM.
On to `C=CC(=O)Nc1cc(Nc2nccc(-c3cn(C)c4ccccc34)n2)c(OCC)cc1N(C)CCNC` [Compound 24, N-(4-ethoxy-2-(methyl(2-(methylamino)ethyl)amino)-5-((4-(1-methyl-1H-indol-3-yl)pyrimidine-2-yl)amino)phenyl)acrylamide], for which the GI50 came out at 213 nM in assay [1], 266 nM in assay [2] and 207 nM in assay [3].
On the same counts, the results for `C=CC(=O)Nc1cc(Nc2nccc(-c3cn(C)c4ccc(F)cc34)n2)c(OC)cc1N(C)CCNC` [Compound 25, N-(5-((4-(5-fluoro-1-methyl-1H-indol-3-yl)pyrimidin-2-yl)amino)-4-methoxy-2-(methyl(2-(methylamino)ethyl)amino)phenyl)acrylamide] are 51 nM, 104 nM and 78.9 nM.
In the case of `C=CC(=O)Nc1cc(Nc2nccc(-c3cn(C)c4ccccc34)n2)c(OC(F)F)cc1N(C)CCNC` [Compound 26, N-(4-(difluoromethoxy)-2-(methyl(2-(methylamino)ethyl)amino)-5-((4-(1-methyl-1H-indole-3-yl)pyrimidin-2-yl)amino)phenyl)acrylamide], the GI50 in assay [1] was found to be 38.3 nM; in assay [2], 126 nM; in assay [3] it was 142 nM.
The like results for `C=CC(=O)Nc1cc(Nc2nccc(-c3cn(C)c4ccc(F)cc34)n2)c(OCC)cc1N(C)CCNC` [Compound 27, N-(4-ethoxy-5-((4-(5-fluoro-1-methyl-1H-indol-3-yl)pyrimidin-2-yl)amino)-2-(methyl(2-(methylamino)ethyl)amino)phenyl)acrylamide] were, in that order, 177 nM, 319 nM and 195 nM.
